Legend:
[1] = Determination of pKa values by 13C NMR spectroscopy under argon; type: physicochemical
Description: Luteolin (200 mg) was added in the three-necks round bottle flask fitted with a pH meter under argon (FIG. 12). Degassed water (20 mL) was added with stirring. To the solution, degassed aqueous KOH solution was injected through a syringe to adjust the pH. Aliquots (500 μL) of samples at a given pH value were transferred to 5 mm NMR tubes (Armar Chemicals, Switzerland). To the same NMR tube, deuterium oxide (D20, 5.0 μL) was added introduced for deuterium lock and a DMSO-d6 solution encapsulated in capillary tube (FIG. 12) was placed in the tube as the external standard for (at 2.50 ppm for CD3SOCD3, H. E. Gottlieb, V. Kotlyar & A. Nudelman, J. Org. Chem. 1997, 62, 7512-7515). The spectra were recorded and analyzed with MestReNova (Mestrelab research, version 5.2.5-4119). The resulting sigmoidal curve was subjected to nonlinear curve fitting using Prism® (GraphPad, version 5.0b and 5.0f). The dissociation constant pKa was calculated using the Henderson-Hasselback equation (Equation 1-4).
Where LH4, LH3^−, LH2^2−, LH^3− and L^4− are the species of luteolin in fully protonated form, first deprotonated, second deprotonated, third deprotonated 100% deprotonated form.
The chemical shift of the carbons in luteolin is dependent on the relative concentrations of the conjugate pair. For a solution at pH within pKa1 range, and the species in solution is ˜100% protonated (LH4), and the chemical shifts are that of the protonated species, δlow−1. For a solution at a higher pH the species in solution is first deprotonated (LH3^−), and the chemical shifts are that of the deprotonated species, δhigh−1.
Equation 7-8 were applied to determine the mole fraction of conjugate pair from chemical shift of a specific carbon. The assignment of ^13C NMR of luteolin was further confirmed by HSQC and HMBC methods with 2D correlation with ^1H NMR.

blood glucose = experiment: Glycemic response of mice after starch gavage; type: in vivo
Description: A 10% (w/v) starch solution was prepared by addition of distilled water to reagent grade corn starch and heating the solution it in a boiling water bath for about 15 minutes until it was completely gelatinized. 8-week-old male wild-type C57BL/6J mice were fasted overnight (free water intake), and weighed the next day. The tail of the mice was trimmed and the blood was taken for measurement of fasting blood glucose concentration with a Roche blood glucose meter. Feeding method a, “YX2+Starch”: Luteolin dimer (2a) was gavaged as a 2 mg/mL water solution, at the dosage level of 20 mg/kg body weight of the animal. Thirty minutes later, the 10% (w/v) starch solution was gavaged at 1 g/kg body weight. Feeding method b, “Starch (+YX2)”: Luteolin dimer (2a) was mixed with starch at 0.2% ratio by dried weight and mixed with water (1:9 by weight) to give a slurry labelled as Starch (+YX2) (FIG. 41). The mixture was gavaged to mice at with 1 g/kg body weight. In comparison, luteolin (1a or YX1) was mixed with starch at 0.2% by weight. The resulting mixture was further mixed with water to give 10% starch slurry labelled as starch (+YX1) (FIG. 41). The mice were gavaged with 1 g/kg body weight. The blood glucose values were measured at 30, 60, 90, 120 minutes to make the blood glucose curve, GraphPad draws the blood glucose response curve after meal, and the area under the curve was calculated.

α-amylase = molecular target: T1, α-amylase (Sus scrofa, UniProt P00690); experiment: High-throughput starch hydrolase inhibition assay (turbidity, corn starch); type: biochemical
T1 sequence (P00690 16-511): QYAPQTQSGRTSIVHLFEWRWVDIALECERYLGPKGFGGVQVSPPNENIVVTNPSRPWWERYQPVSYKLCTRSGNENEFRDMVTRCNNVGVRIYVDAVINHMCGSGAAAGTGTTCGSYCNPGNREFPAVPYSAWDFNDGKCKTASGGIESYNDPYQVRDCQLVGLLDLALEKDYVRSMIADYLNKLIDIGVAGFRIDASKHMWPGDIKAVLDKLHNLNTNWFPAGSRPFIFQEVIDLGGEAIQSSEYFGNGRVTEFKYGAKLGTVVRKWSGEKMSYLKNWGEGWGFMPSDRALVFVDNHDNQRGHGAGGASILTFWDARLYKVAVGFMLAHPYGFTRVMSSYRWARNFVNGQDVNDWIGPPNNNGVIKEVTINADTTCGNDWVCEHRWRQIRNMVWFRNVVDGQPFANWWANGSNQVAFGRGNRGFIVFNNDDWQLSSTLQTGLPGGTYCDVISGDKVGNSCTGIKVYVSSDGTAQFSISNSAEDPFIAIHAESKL
Description: (§1) The inhibitory activity of each fraction obtained on α-amylase and α-glucosidase were determined using the turbidity measurement according to a reported method (Liu, Song, Wang, & Huang, 2011, Journal of agricultural and food chemistry 2011 Vol. 59 Issue 18 Pages 9756-9762). Corn starch (20 mg/mL) was suspended in sodium phosphate buffer (0.1 M, pH 6.9) and gelatinized at 100° C. for 2.5 min. The inhibitor solution was diluted in buffer to appropriate concentrations. Acarbose was used as a positive control and a reference standard. α-amylase solution (2 U/mL in buffer, 20 μL) or α-glucosidase solution (1×10−2 U/mL in buffer) was pre-incubated with inhibitor solution (20 μL) with series of concentrations in a 96-well microplate and kept at 37° C. for 15 min. The reaction was initiated by injecting 60 μL of the gelatinized corn starch solution. The turbidity changes were recorded at 660 nm every minute for 2 h using a Synergy HT microplate reader (Biotek Instruments Inc., Winooski, VT, USA). The inhibition percentage was calculated using Equation 10.
(§2) Inhibition (%)=(AUCsample−AUCcontrol)/AUCsample×100% (Equation 10)
(§3) Where AUCsample is the area under the inhibitory curve and AUCcontrol is the area under the curve negative control. The IC50 can be defined as the concentration of an inhibitor that produces 50% inhibition of enzyme activity under a specified assay condition. It was obtained from interpolation of percentage of inhibition against inhibitor concentration curve. In order to avoid run-to-run error due to fluctuation of enzymatic activity, the acarbose equivalent (AE) was used to express the inhibitory activity of sample based on the following equation:
(§4) AE of a sample=IC50 of acarbose/IC50 of a sample (Equation 11)

[2] = Solubility in water (observation); type: physicochemical; details: in water or slightly basic aqueous solution
[3] = literature (Electrochim. Acta 2013); cited from earlier work
[4] = test system: Aspergillus niger ATCC 16888; experiment: Antifungal activity, radial growth technique on PDA medium; type: cell-based; details: ATCC16888, read-out: IC50, inhibition of the growth of A. niger
Description: The antifungal activity was evaluated against two fungi, Aspergillus niger ATCC 16888 and Botrytis cinerea ATCC 11542, isolated and identified with ITS gene (GenBank accession number AY373852, A. S. Taha et al., BioResources 2019, 14, 6025-6046). The bioassay was evaluated using the radial growth technique method (P. Wayne, Reference method for broth dilution antifungal susceptibility testing of yeasts, approved standard. CLSI document M27-A2, 2002). Both fungal strains were cultivated aerobically on PDA medium at 25° C. for 14 days. The fungal spores were collected with sterile cotton swabs and suspended in sterile water, and the concentrations were adjusted according to the requirements of the antifungal assays to be performed.
Flavonoids oligomers were dissolved in DMSO ([…]), then transferred into sterilized warm PDA medium (40 to 45° C.) to achieve a final concentration of 1.0 mg/mL, 0.6 mg/mL and 0.4 mg/mL, before immediately pouring into 24-well sterile plastic microtitration plates containing flat-bottomed wells (Corning Incorporated, costar). […]
From a 7-day-old colony, the fungus with discs of 9 mm diameter was transferred to the center of the treated PDA plates and controls. […] All the tested concentrations, as well as positive and negative controls, were measured in triplicate.

α-glucosidase = experiment: High-throughput starch hydrolase inhibition assay (turbidity, corn starch); type: biochemical
Description: as §1, §2, §3, §4

[5] = 0.2% mixture of compound in starch, gavaged at 1 g/kg body weight

SMILES	pKa3 ([1]; C(3′)-OH)	pKa2 ([1]; C(4′)-OH)	pKa4 ([1]; C(5)-OH)	pKa1 ([1]; C(7)-OH, first deprotonation)	glycemic response (blood glucose; [5])	activity in inhibiting α-amylase compared with acarbose (α-amylase)	solubility [2]	pKa1, literature values [3]	IC50 [4]	glycemic response (blood glucose; 20 mg/kg by gavage 30 minutes before starch at 1 g/kg body weight (curve YX2+starch))	glycemic response (blood glucose; mice fed only with compound at 20 mg/kg body weight, no starch)	activity in inhibiting α-glucosidase compared with acarbose (α-glucosidase)
O=c1cc(-c2ccc(O)c(O)c2)oc2cc(O)cc(O)c12 [luteolin]	12.78	8.93	13.03	8.00	almost the same as that of the mice fed only with same dosage of starch	no activity	poor solubility	~6.0	–	–	–	–
O=c1cc(-c2ccc(O)c(O)c2-c2c(O)cc3oc(-c4ccc(O)c(O)c4-c4c(O)cc5oc(-c6ccc(O)c(O)c6)cc(=O)c5c4O)cc(=O)c3c2O)oc2cc(O)cc(O)c12 [Compound 3a, 6-(6-(5,7-dihydroxy-4-oxo-4H-chromen-2-yl)-2,3-dihydroxyphenyl)-2-(2-(2-(3,4-dihydroxyphenyl)-5,7-dihydroxy-4-oxo-4H-chromen-6-yl)-3,4-dihydroxyphenyl)-5,7-dihydroxy-4H-chromen-4-one]	–	–	–	–	–	–	–	–	960 nM	–	–	–
O=c1cc(-c2ccc(O)c(O)c2-c2c(O)cc3oc(-c4ccc(O)c(O)c4)cc(=O)c3c2O)oc2cc(O)cc(O)c12 [Compound 2a, 6-(6-(5,7-dihydroxy-4-oxo-4H-chromen-2-yl)-2,3-dihydroxyphenyl)-2-(3,4-dihydroxyphenyl)-5,7-dihydroxy-4H-chromen-4-one]	–	–	–	–	comparable to that of the mice fed only with same dose of starch	comparable	–	–	860 nM	no glycemic response	did not lead to glycemic response	comparable
O=c1cc(-c2ccc(O)c(O)c2-c2c(O)cc3oc(-c4ccc(O)cc4)cc(=O)c3c2O)oc2cc(O)cc(O)c12 [Compound 2b, 6-(6-(5,7-dihydroxy-4-oxo-4H-chromen-2-yl)-2,3-dihydroxyphenyl)-5,7-dihydroxy-2-(4-hydroxyphenyl)-4H-chromen-4-one]	–	–	–	–	–	even higher	–	–	–	–	–	even higher
